# US20260092074A1, “Annelated Pyridines as Steroidogenesis Inhibitors, Preparation Method and Use Thereof” (Guangzhou Vinnocent Pharmaceutical Limited, priority 2022, published 2026)
# Assays:
# human CYP11B1 = target: T1, human CYP11B1 (Homo sapiens, UniProt P15538); assay: Inhibition of hCYP11B1 in transfected V79 cells; type: cell-based; conditions: hamster V79 cells expressing human CYP11B1; substrate 11-deoxycortisol 200 nM
# T1 construct: expressed in transfected cells
# T1 sequence (P15538 25-503): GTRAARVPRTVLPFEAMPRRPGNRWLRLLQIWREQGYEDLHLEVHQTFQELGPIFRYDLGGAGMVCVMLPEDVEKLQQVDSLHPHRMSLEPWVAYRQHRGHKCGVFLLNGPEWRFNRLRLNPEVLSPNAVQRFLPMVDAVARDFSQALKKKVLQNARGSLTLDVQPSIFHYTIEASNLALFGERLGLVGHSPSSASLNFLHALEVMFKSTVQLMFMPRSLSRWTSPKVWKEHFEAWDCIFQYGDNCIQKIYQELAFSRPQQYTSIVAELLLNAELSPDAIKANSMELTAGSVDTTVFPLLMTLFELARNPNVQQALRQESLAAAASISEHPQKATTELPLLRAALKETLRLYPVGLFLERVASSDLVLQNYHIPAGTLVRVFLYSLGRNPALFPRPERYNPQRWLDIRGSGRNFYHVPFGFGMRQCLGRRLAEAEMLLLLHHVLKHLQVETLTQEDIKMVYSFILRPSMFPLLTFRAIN
# Protocol: (§1) Genes of human CYP11B1 and rat NADPH-P450 reductase were transfected into hamster V79 cells using a lentivirus vector, and stably-expressing cell lines were selected by taking advantages of the associated puromycin-resistance gene. Cultured cells were diluted and seeded in a 96-well plate with an amount of approximately 10,000 per well. After pre-incubation with suitable concentrations of the test compounds for 2 hours, 11-deoxycortisol of 200 nM was added as the substrate to initiate the catalytic reaction. After further incubation for 30 minutes, it was quenched with ethyl acetate. Subsequently, the substrate and product(s) were quantified using LC-MS/MS or HPLC at 260 nm, and the IC50 values were calculated according to inhibitory percentage.
# human CYP11B2 = target: T2, human CYP11B2 (Homo sapiens, UniProt P19099); assay: Inhibition of hCYP11B2 in transfected V79 cells; type: cell-based; conditions: hamster V79 cells expressing human CYP11B2; substrate 11-deoxycorticosterone 200 nM
# T2 construct: expressed in transfected cells
# T2 sequence (P19099 25-503): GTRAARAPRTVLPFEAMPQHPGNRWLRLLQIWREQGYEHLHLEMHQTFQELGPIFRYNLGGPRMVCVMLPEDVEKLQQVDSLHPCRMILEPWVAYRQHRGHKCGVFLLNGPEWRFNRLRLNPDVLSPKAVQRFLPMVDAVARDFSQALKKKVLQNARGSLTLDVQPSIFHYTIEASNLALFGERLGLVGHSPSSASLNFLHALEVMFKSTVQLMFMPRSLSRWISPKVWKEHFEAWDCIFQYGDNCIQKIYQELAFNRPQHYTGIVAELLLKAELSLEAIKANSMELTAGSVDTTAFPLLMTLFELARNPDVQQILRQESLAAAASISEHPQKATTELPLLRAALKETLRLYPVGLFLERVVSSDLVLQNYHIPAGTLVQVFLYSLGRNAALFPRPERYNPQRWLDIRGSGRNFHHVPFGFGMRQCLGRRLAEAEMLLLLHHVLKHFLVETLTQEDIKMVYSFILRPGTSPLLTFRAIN
# Protocol: as §1, with “CYP11B2” for “CYP11B1”, “11-deoxycorticosterone” for “11-deoxycortisol”
compound,measurement,setting,value
"CCC(=O)N[C@@H]1CCCc2c(-c3ccc4c(c3)CCC(=O)N4C)cncc21 [Baxdrostat, reference compound]",IC50,human CYP11B1,3060 nM
same,IC50,human CYP11B2,127 nM
"Cc1ccc(S(=O)(=O)N2CCc3c(-c4ccc(C#N)cc4)cncc32)cc1 [C1, 4-(1-Tosyl-2,3-dihydro-1H-pyrrolo[2,3-c]pyridin-4-yl)benzonitrile]",IC50,human CYP11B1,0.56 nM
same,IC50,human CYP11B2,0.24 nM
"N#Cc1ccc(-c2cncc3c2CCN3S(=O)(=O)c2ccc([N+](=O)[O-])cc2)cc1 [C2, 4-(1-((4-Nitrophenyl)sulfonyl)-2,3-dihydro-1H-pyrrolo[2,3-c]pyridin-4-yl)benzonitrile]",IC50,human CYP11B1,0.35 nM
same,IC50,human CYP11B2,0.12 nM
"COc1ccc(S(=O)(=O)N2CCc3c(-c4ccc(C#N)cc4)cncc32)cc1 [C3, 4-(1-((4-Methoxyphenyl)sulfonyl)-2,3-dihydro-1H-pyrrolo[2,3-c]pyridin-4-yl)benzonitrile]",IC50,human CYP11B1,0.2 nM
same,IC50,human CYP11B2,0.16 nM
"N#Cc1ccc(-c2cncc3c2CCN3S(=O)(=O)c2ccc(C(F)(F)F)cc2)cc1 [C4, 4-(1-((4-(Trifluoromethyl)phenyl)sulfonyl)-2,3-dihydro-1H-pyrrolo[2,3-c]pyridin-4-yl)benzonitrile]",IC50,human CYP11B1,0.36 nM
same,IC50,human CYP11B2,0.64 nM
"N#Cc1ccc(-c2cncc3c2CCN3S(=O)(=O)c2ccc(Cl)nc2)cc1 [C5, 4-(1-((6-Chloropyridin-3-yl)sulfonyl)-2,3-dihydro-1H-pyrrolo[2,3-c]pyridin-4-yl)benzonitrile]",IC50,human CYP11B1,1.1 nM
same,IC50,human CYP11B2,0.4 nM
"N#Cc1ccc(-c2cncc3c2CCN3S(=O)(=O)c2cccc(F)c2)cc1 [C6, 4-(1-((3-Fluorophenyl)sulfonyl)-2,3-dihydro-1H-pyrrolo[2,3-c]pyridin-4-yl)benzonitrile]",IC50,human CYP11B1,1.2 nM
same,IC50,human CYP11B2,0.3 nM
"N#Cc1ccc(-c2cncc3c2CCN3S(=O)(=O)c2ccc(F)cc2)cc1 [C7, 4-(1-((4-Fluorophenyl)sulfonyl)-2,3-dihydro-1H-pyrrolo[2,3-c]pyridin-4-yl)benzonitrile]",IC50,human CYP11B1,1.9 nM
same,IC50,human CYP11B2,0.15 nM
"Cc1cccc(S(=O)(=O)N2CCc3c(-c4ccc(C#N)cc4)cncc32)c1 [C8, 4-(1-(m-Tolylsulfonyl)-2,3-dihydro-1H-pyrrolo[2,3-c]pyridin-4-yl)benzonitrile]",IC50,human CYP11B1,0.25 nM
same,IC50,human CYP11B2,1.4 nM
"N#Cc1ccc(-c2cncc3c2CCN3S(=O)(=O)c2cccc([N+](=O)[O-])c2)cc1 [C9, 4-(1-((3-Nitrophenyl)sulfonyl)-2,3-dihydro-1H-pyrrolo[2,3-c]pyridin-4-yl)benzonitrile]",IC50,human CYP11B1,0.5 nM
same,IC50,human CYP11B2,0.3 nM
"N#Cc1ccc(-c2cncc3c2CCN3S(=O)(=O)c2cccnc2)cc1 [C10, 4-(1-(Pyridin-3-ylsulfonyl)-2,3-dihydro-1H-pyrrolo[2,3-c]pyridin-4-yl)benzonitrile]",IC50,human CYP11B1,1.7 nM
same,IC50,human CYP11B2,1.3 nM
"N#Cc1ccc(-c2cncc3c2CCN3S(=O)(=O)c2cccc3cccnc23)cc1 [C11, 4-(1-(Quinolin-8-ylsulfonyl)-2,3-dihydro-1H-pyrrolo[2,3-c]pyridin-4-yl)benzonitrile]",IC50,human CYP11B1,0.7 nM
same,IC50,human CYP11B2,1 nM
"N#Cc1ccc(-c2cncc3c2CCN3S(=O)(=O)c2ccc3ccccc3c2)cc1 [C12, 4-(1-(Naphthalen-2-ylsulfonyl)-2,3-dihydro-1H-pyrrolo[2,3-c]pyridin-4-yl)benzonitrile]",IC50,human CYP11B1,0.3 nM
same,IC50,human CYP11B2,0.17 nM
"N#Cc1ccc(-c2cncc3c2CCN3S(=O)(=O)c2ccc(Cl)cc2)cc1 [C13, 4-(1-((4-Chlorophenyl)sulfonyl)-2,3-dihydro-1H-pyrrolo[2,3-c]pyridin-4-yl)benzonitrile]",IC50,human CYP11B1,0.2 nM
same,IC50,human CYP11B2,0.6 nM
"N#Cc1ccc(-c2cncc3c2CCN3S(=O)(=O)c2cccc(Cl)c2)cc1 [C14, 4-(1-((3-Chlorophenyl)sulfonyl)-2,3-dihydro-1H-pyrrolo[2,3-c]pyridin-4-yl)benzonitrile]",IC50,human CYP11B1,0.9 nM
same,IC50,human CYP11B2,0.5 nM
"N#Cc1ccc(-c2cncc3c2CCN3S(=O)(=O)c2ccc(C#N)cc2)cc1 [C15, 4-((4-(4-Cyanophenyl)-2,3-dihydro-1H-pyrrolo[2,3-c]pyridin-1-yl)sulfonyl)benzonitrile]",IC50,human CYP11B1,0.16 nM
same,IC50,human CYP11B2,0.28 nM
"N#Cc1ccc(-c2cncc3c2CCN3S(=O)(=O)c2cccc(C#N)c2)cc1 [C16, 3-((4-(4-Cyanophenyl)-2,3-dihydro-1H-pyrrolo[2,3-c]pyridin-1-yl)sulfonyl)benzonitrile]",IC50,human CYP11B1,0.18 nM
same,IC50,human CYP11B2,1.5 nM
"N#Cc1ccc(-c2cncc3c2CCN3S(=O)(=O)c2cccs2)cc1 [C17, 4-(1-(Thiophen-2-ylsulfonyl)-2,3-dihydro-1H-pyrrolo[2,3-c]pyridin-4-yl)benzonitrile]",IC50,human CYP11B1,7.8 nM
same,IC50,human CYP11B2,3.5 nM
"N#Cc1ccc(-c2cncc3c2CCN3S(=O)(=O)c2cccc3ccccc23)cc1 [C18, 4-(1-(Naphthalen-1-ylsulfonyl)-2,3-dihydro-1H-pyrrolo[2,3-c]pyridin-4-yl)benzonitrile]",IC50,human CYP11B1,0.61 nM
same,IC50,human CYP11B2,0.69 nM
"COc1cccc(S(=O)(=O)N2CCc3c(-c4ccc(C#N)cc4)cncc32)c1 [C19, 4-(1-((3-Methoxyphenyl)sulfonyl)-2,3-dihydro-1H-pyrrolo[2,3-c]pyridin-4-yl)benzonitrile]",IC50,human CYP11B1,9.5 nM
same,IC50,human CYP11B2,4.3 nM
"N#Cc1ccc(-c2cncc3c2CCN3S(=O)(=O)c2cccc(C(F)(F)F)c2)cc1 [C20, 4-(1-((3-[Trifluoromethyl]phenyl)sulfonyl)-2,3-dihydro-1H-pyrrolo[2,3-c]pyridin-4-yl)benzonitrile]",IC50,human CYP11B1,0.4 nM
same,IC50,human CYP11B2,1.8 nM
"N#Cc1ccc(-c2cncc3c2CCN3S(=O)(=O)c2ccccc2)cc1 [C21, 4-(1-(Phenylsulfonyl)-2,3-dihydro-1H-pyrrolo[2,3-c]pyridin-4-yl)benzonitrile]",IC50,human CYP11B1,0.01 nM
same,IC50,human CYP11B2,0.01 nM
"N#Cc1ccc(-c2cncc3c2CCN3C(=O)c2ccc(C(F)(F)F)cc2)cc1 [C22, 4-(1-(4-(Trifluoromethyl)benzoyl)-2,3-dihydro-1H-pyrrolo[2,3-c]pyridin-4-yl)benzonitrile]",IC50,human CYP11B1,112 nM
same,IC50,human CYP11B2,2 nM
"N#Cc1ccc(-c2cncc3c2CCN3C(=O)c2cccc(C(F)(F)F)c2)cc1 [C23, 4-(1-(3-(Trifluoromethyl)benzoyl)-2,3-dihydro-1H-pyrrolo[2,3-c]pyridin-4-yl)benzonitrile]",IC50,human CYP11B1,310 nM
same,IC50,human CYP11B2,7 nM
"COc1ccc(C(=O)N2CCc3c(-c4ccc(C#N)cc4)cncc32)cc1 [C24, 4-(1-(4-Methoxybenzoyl)-2,3-dihydro-1H-pyrrolo[2,3-c]pyridin-4-yl)benzonitrile]",IC50,human CYP11B1,124 nM
same,IC50,human CYP11B2,2.3 nM
"N#Cc1ccc(-c2cncc3c2CCN3C(=O)c2ccc(F)cc2)cc1 [C25, 4-(1-(4-Fluorobenzoyl)-2,3-dihydro-1H-pyrrolo[2,3-c]pyridin-4-yl)benzonitrile]",IC50,human CYP11B1,988 nM
same,IC50,human CYP11B2,30 nM
"COc1cccc(C(=O)N2CCc3c(-c4ccc(C#N)cc4)cncc32)c1 [C26, 4-(1-(3-Methoxybenzoyl)-2,3-dihydro-1H-pyrrolo[2,3-c]pyridin-4-yl)benzonitrile]",IC50,human CYP11B1,356 nM
same,IC50,human CYP11B2,2.3 nM
"N#Cc1ccc(-c2cncc3c2CCN3C(=O)c2cccc([N+](=O)[O-])c2)cc1 [C27, 4-(1-(3-Nitrobenzoyl)-2,3-dihydro-1H-pyrrolo[2,3-c]pyridin-4-yl)benzonitrile]",IC50,human CYP11B1,117 nM
same,IC50,human CYP11B2,2.3 nM
